In ChEMBL document CHEMBL1909046, “DrugMatrix in vitro pharmacology data”:

target: T1, 5-hydroxytryptamine receptor 1A (Rattus norvegicus, UniProt P19327); experiment: not given; assay type: cell membranes, CHO-K1, Membrane; conditions: cho-k1; further: in other assays of this panel Not Active means under 50% inhibition at 10 µM
T1 sequence (P19327 whole entry): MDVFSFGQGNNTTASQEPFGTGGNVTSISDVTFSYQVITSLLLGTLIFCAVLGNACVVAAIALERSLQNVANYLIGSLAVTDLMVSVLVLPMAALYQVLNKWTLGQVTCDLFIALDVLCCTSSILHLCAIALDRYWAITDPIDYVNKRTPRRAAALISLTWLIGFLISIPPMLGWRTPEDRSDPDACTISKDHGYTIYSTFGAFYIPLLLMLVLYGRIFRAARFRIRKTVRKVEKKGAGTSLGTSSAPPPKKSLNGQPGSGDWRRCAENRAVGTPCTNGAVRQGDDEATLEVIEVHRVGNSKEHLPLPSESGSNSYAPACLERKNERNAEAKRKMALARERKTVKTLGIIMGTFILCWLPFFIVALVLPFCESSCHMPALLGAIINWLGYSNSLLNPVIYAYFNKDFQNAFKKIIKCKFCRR

Structure (SMILES) | IC50
CCCCNc1ccc(C(=O)OCCN(C)C)cc1 [TETRACAINE] | Not Active
Cn1c(=O)c2nc[nH]c2n(C)c1=O.O [THEOPHYLLINE] | Not Active
CS(=O)(=O)c1ccc([C@@H](O)[C@@H](CO)NC(=O)C(Cl)Cl)cc1 [THIAMPHENICOL] | Not Active
CCN(CC)CCNC(=O)c1cc(S(C)(=O)=O)ccc1OC [TIAPRIDE] | Not Active
Clc1ccccc1CN1CCc2sccc2C1 [TICLOPIDINE] | Not Active
NC1CCN(c2nc3c(cc2F)c(=O)c(C(=O)O)cn3-c2ccc(F)cc2F)C1 (configuration not stated) [TOSUFLOXACIN] | Not Active
O=C(Nc1ccc(Br)cc1)c1cc(Br)cc(Br)c1O [TRIBROMSALAN] | Not Active

target: Beta-2 adrenergic receptor (Homo sapiens, UniProt P07550); experiment: DRUGMATRIX: Adrenergic beta2 radioligand binding (ligand: [3H] CGP-12177); assay type: cell membranes, CHO, Membrane; conditions: cho; Not Active = under 50% inhibition at 10 µM
Sequence (P07550 whole entry): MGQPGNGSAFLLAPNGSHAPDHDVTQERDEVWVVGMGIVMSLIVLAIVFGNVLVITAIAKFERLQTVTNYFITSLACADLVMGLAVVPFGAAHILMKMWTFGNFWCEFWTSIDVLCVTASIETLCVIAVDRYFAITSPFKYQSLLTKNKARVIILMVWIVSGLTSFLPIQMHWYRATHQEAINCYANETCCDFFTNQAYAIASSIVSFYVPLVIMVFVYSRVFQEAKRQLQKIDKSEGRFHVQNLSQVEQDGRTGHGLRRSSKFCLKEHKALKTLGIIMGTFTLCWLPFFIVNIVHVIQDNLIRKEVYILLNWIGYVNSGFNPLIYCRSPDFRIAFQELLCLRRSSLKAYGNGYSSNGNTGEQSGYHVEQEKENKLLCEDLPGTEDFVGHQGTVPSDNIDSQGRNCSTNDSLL

Structure (SMILES) | IC50
CCCCNc1ccc(C(=O)OCCN(C)C)cc1 [TETRACAINE] | Not Active
Cn1c(=O)c2nc[nH]c2n(C)c1=O.O [THEOPHYLLINE] | Not Active
CS(=O)(=O)c1ccc([C@@H](O)[C@@H](CO)NC(=O)C(Cl)Cl)cc1 [THIAMPHENICOL] | Not Active
CCN(CC)CCNC(=O)c1cc(S(C)(=O)=O)ccc1OC [TIAPRIDE] | Not Active
Clc1ccccc1CN1CCc2sccc2C1 [TICLOPIDINE] | Not Active
NC1CCN(c2nc3c(cc2F)c(=O)c(C(=O)O)cn3-c2ccc(F)cc2F)C1 (configuration not stated) [TOSUFLOXACIN] | Not Active
O=C(Nc1ccc(Br)cc1)c1cc(Br)cc(Br)c1O [TRIBROMSALAN] | Not Active

system: not listed separately; experiment: DRUGMATRIX: Tumor Necrosis Factor (TNF), Non-Selective radioligand binding (ligand: [125I] TNF-alpha); assay type: cell membranes, Membrane; conditions: u-937; Not Active = under 50% inhibition at 10 µM

Structure (SMILES) | IC50 | Ki
CCCCNc1ccc(C(=O)OCCN(C)C)cc1 [TETRACAINE] | Not Active | Not Active
Cn1c(=O)c2nc[nH]c2n(C)c1=O.O [THEOPHYLLINE] | Not Active | Not Active
CS(=O)(=O)c1ccc([C@@H](O)[C@@H](CO)NC(=O)C(Cl)Cl)cc1 [THIAMPHENICOL] | Not Active | Not Active
CCN(CC)CCNC(=O)c1cc(S(C)(=O)=O)ccc1OC [TIAPRIDE] | Not Active | Not Active
Clc1ccccc1CN1CCc2sccc2C1 [TICLOPIDINE] | Not Active | Not Active
NC1CCN(c2nc3c(cc2F)c(=O)c(C(=O)O)cn3-c2ccc(F)cc2F)C1 (configuration not stated) [TOSUFLOXACIN] | Not Active | Not Active
O=C(Nc1ccc(Br)cc1)c1cc(Br)cc(Br)c1O [TRIBROMSALAN] | Not Active | Not Active

target: T2, Nitric oxide synthase, inducible (Mus musculus, UniProt P29477); experiment: not given; parameters: species or system Escherichia coli; conditions: not given;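 further: inhibition of iNOS enzyme activity measured with L-arginine as substrate; in other assays of this panel Not Active means under 50% inhibition at 10 µM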
T2 sequence (P29477 whole entry): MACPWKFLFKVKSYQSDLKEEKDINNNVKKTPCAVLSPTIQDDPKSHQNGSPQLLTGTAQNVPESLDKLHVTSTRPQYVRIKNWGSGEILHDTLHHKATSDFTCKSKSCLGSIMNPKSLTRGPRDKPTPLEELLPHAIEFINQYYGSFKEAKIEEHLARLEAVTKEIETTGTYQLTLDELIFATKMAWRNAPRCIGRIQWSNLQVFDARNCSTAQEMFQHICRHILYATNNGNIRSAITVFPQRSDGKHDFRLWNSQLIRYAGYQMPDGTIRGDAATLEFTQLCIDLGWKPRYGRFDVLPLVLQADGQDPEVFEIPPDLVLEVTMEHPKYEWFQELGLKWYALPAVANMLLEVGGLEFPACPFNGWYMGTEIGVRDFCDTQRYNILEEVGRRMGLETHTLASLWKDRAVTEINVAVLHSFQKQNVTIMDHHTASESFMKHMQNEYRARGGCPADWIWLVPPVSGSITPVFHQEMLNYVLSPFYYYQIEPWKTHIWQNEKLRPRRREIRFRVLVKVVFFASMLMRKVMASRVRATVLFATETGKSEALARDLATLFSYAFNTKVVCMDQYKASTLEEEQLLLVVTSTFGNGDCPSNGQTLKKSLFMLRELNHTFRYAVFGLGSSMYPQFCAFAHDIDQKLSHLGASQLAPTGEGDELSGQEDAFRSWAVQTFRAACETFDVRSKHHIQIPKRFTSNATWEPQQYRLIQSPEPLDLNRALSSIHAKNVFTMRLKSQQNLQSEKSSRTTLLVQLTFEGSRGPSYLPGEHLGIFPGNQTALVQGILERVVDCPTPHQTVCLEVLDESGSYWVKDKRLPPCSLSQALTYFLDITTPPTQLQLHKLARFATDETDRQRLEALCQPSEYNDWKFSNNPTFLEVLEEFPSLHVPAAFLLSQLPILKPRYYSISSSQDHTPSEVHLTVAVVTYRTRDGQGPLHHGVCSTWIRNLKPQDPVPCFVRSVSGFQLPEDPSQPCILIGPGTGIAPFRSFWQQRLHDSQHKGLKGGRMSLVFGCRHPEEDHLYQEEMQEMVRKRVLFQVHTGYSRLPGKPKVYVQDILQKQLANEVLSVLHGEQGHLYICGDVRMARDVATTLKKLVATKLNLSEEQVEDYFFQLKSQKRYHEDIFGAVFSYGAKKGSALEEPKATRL

Structure (SMILES) | IC50
CCCCNc1ccc(C(=O)OCCN(C)C)cc1 [TETRACAINE] | Not Active
Cn1c(=O)c2nc[nH]c2n(C)c1=O.O [THEOPHYLLINE] | Not Active
CS(=O)(=O)c1ccc([C@@H](O)[C@@H](CO)NC(=O)C(Cl)Cl)cc1 [THIAMPHENICOL] | Not Active
CCN(CC)CCNC(=O)c1cc(S(C)(=O)=O)ccc1OC [TIAPRIDE] | Not Active
Clc1ccccc1CN1CCc2sccc2C1 [TICLOPIDINE] | Not Active
NC1CCN(c2nc3c(cc2F)c(=O)c(C(=O)O)cn3-c2ccc(F)cc2F)C1 (configuration not stated) [TOSUFLOXACIN] | Not Active
O=C(Nc1ccc(Br)cc1)c1cc(Br)cc(Br)c1O [TRIBROMSALAN] | Not Active

target: T3, Interstitial collagenase (Homo sapiens, UniProt P03956); experiment: biochemical; assay type: tissue-based, Rheumatoid synovial fibroblasts; conditions: not given;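 further: MMP-1 enzyme inhibition assay using a peptide substrate; in other assays of this panel Not Active means under 50% inhibition at 10 µM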
T3 sequence (P03956 whole entry): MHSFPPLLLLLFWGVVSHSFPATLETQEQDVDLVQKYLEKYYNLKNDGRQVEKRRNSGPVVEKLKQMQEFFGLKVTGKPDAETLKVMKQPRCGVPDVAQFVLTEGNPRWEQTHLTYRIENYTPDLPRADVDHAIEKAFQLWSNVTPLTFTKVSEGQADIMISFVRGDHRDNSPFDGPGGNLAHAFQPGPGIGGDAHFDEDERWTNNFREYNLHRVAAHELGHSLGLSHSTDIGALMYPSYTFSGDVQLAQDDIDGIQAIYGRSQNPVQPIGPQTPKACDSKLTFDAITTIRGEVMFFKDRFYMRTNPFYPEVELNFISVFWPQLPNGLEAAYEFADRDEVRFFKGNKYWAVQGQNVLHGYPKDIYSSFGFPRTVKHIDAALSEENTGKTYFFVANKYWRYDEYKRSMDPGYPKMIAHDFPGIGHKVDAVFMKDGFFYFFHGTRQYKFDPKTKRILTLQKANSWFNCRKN

Structure (SMILES) | IC50
CCCCNc1ccc(C(=O)OCCN(C)C)cc1 [TETRACAINE] | Not Active
Cn1c(=O)c2nc[nH]c2n(C)c1=O.O [THEOPHYLLINE] | Not Active
CS(=O)(=O)c1ccc([C@@H](O)[C@@H](CO)NC(=O)C(Cl)Cl)cc1 [THIAMPHENICOL] | Not Active
CCN(CC)CCNC(=O)c1cc(S(C)(=O)=O)ccc1OC [TIAPRIDE] | Not Active
Clc1ccccc1CN1CCc2sccc2C1 [TICLOPIDINE] | Not Active
NC1CCN(c2nc3c(cc2F)c(=O)c(C(=O)O)cn3-c2ccc(F)cc2F)C1 (configuration not stated) [TOSUFLOXACIN] | Not Active
O=C(Nc1ccc(Br)cc1)c1cc(Br)cc(Br)c1O [TRIBROMSALAN] | Not Active

system: not listed separately; experiment: DRUGMATRIX: Phorbol Ester radioligand binding (ligand: [3H] PDBu); assay type: cell membranes, Mus musculus, ICR, Brain, Membrane; conditions: Not Active = under 50% inhibition at 10 µM

Structure (SMILES) | IC50 | Ki
CCCCNc1ccc(C(=O)OCCN(C)C)cc1 [TETRACAINE] | Not Active | Not Active
Cn1c(=O)c2nc[nH]c2n(C)c1=O.O [THEOPHYLLINE] | Not Active | Not Active
CS(=O)(=O)c1ccc([C@@H](O)[C@@H](CO)NC(=O)C(Cl)Cl)cc1 [THIAMPHENICOL] | Not Active | Not Active
CCN(CC)CCNC(=O)c1cc(S(C)(=O)=O)ccc1OC [TIAPRIDE] | Not Active | Not Active
Clc1ccccc1CN1CCc2sccc2C1 [TICLOPIDINE] | Not Active | Not Active
NC1CCN(c2nc3c(cc2F)c(=O)c(C(=O)O)cn3-c2ccc(F)cc2F)C1 (configuration not stated) [TOSUFLOXACIN] | Not Active | Not Active
O=C(Nc1ccc(Br)cc1)c1cc(Br)cc(Br)c1O [TRIBROMSALAN] | Not Active | Not Active

target: Voltage-gated inwardly rectifying potassium channel KCNH2 (Homo sapiens, UniProt Q12809); experiment: not given; conditions: hek293; further: in other assays of this panel Not Active means under 50% inhibition at 10 µM
Sequence (Q12809 whole entry): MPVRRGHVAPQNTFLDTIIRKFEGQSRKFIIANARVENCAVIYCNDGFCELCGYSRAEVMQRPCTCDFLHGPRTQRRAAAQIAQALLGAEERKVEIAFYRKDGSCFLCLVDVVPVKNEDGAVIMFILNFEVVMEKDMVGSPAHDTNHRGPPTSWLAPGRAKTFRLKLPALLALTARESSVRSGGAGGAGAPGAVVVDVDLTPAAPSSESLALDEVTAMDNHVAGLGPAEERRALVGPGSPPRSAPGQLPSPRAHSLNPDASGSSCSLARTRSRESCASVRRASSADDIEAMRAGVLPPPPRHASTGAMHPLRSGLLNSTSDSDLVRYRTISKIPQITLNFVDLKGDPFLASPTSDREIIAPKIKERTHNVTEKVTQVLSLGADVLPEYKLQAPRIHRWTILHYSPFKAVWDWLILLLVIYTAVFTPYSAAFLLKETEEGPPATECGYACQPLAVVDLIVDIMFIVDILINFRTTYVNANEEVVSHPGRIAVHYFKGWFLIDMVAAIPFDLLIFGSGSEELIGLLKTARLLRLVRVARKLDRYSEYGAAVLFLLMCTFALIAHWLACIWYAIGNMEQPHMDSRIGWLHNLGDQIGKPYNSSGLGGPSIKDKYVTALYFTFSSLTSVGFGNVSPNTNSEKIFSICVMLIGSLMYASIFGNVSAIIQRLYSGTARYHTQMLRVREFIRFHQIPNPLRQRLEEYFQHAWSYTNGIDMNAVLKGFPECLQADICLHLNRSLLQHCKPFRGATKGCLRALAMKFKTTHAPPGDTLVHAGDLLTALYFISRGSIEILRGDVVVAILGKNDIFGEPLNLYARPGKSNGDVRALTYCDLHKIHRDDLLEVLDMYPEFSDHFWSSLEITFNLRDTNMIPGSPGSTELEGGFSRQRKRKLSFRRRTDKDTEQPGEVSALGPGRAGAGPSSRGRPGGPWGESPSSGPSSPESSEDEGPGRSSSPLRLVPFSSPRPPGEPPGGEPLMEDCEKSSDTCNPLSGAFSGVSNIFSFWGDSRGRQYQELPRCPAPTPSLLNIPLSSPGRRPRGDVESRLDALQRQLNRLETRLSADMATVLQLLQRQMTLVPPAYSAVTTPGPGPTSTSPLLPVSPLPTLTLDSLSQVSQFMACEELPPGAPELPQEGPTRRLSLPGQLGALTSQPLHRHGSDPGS

Structure (SMILES) | IC50 | Ki
CCCCNc1ccc(C(=O)OCCN(C)C)cc1 [TETRACAINE] | Not Active | Not Active
Cn1c(=O)c2nc[nH]c2n(C)c1=O.O [THEOPHYLLINE] | Not Active | Not Active
CS(=O)(=O)c1ccc([C@@H](O)[C@@H](CO)NC(=O)C(Cl)Cl)cc1 [THIAMPHENICOL] | Not Active | Not Active
CCN(CC)CCNC(=O)c1cc(S(C)(=O)=O)ccc1OC [TIAPRIDE] | Not Active | Not Active
Clc1ccccc1CN1CCc2sccc2C1 [TICLOPIDINE] | Not Active | Not Active
NC1CCN(c2nc3c(cc2F)c(=O)c(C(=O)O)cn3-c2ccc(F)cc2F)C1 (configuration not stated) [TOSUFLOXACIN] | Not Active | Not Active
O=C(Nc1ccc(Br)cc1)c1cc(Br)cc(Br)c1O [TRIBROMSALAN] | Not Active | Not Active

target: Beta-1 adrenergic receptor (Homo sapiens, UniProt P08588); experiment: DRUGMATRIX: Adrenergic beta1 radioligand binding (ligand: [125I] Cyanopindolol); assay type: cell membranes, CHO-K1, Membrane; conditions: cho-k1; Not Active = under 50% inhibition at 10 µM
Sequence (P08588 whole entry): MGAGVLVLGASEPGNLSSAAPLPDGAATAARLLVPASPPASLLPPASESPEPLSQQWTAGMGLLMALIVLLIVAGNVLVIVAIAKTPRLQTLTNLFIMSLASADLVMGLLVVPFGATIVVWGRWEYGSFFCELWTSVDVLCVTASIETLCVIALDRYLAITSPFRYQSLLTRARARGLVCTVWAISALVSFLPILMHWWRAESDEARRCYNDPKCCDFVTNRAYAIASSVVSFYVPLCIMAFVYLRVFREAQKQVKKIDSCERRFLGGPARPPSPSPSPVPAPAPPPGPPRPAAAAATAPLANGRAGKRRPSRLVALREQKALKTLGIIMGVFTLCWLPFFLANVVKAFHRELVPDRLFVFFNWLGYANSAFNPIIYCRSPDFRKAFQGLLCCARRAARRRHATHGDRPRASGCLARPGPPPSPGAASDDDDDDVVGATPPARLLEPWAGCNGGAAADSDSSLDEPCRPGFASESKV

Structure (SMILES) | IC50
CCCCNc1ccc(C(=O)OCCN(C)C)cc1 [TETRACAINE] | Not Active
Cn1c(=O)c2nc[nH]c2n(C)c1=O.O [THEOPHYLLINE] | Not Active
CS(=O)(=O)c1ccc([C@@H](O)[C@@H](CO)NC(=O)C(Cl)Cl)cc1 [THIAMPHENICOL] | Not Active
CCN(CC)CCNC(=O)c1cc(S(C)(=O)=O)ccc1OC [TIAPRIDE] | Not Active
Clc1ccccc1CN1CCc2sccc2C1 [TICLOPIDINE] | Not Active
NC1CCN(c2nc3c(cc2F)c(=O)c(C(=O)O)cn3-c2ccc(F)cc2F)C1 (configuration not stated) [TOSUFLOXACIN] | Not Active
O=C(Nc1ccc(Br)cc1)c1cc(Br)cc(Br)c1O [TRIBROMSALAN] | Not Active
